Earlier results on five compounds are cited in patent US20070269478A1, “METHOD OF PREPARING ACELLULARIZED, BIOCOMPATIBLE, IMPLANTABLE MATERIAL” (priority 2006, published 2007).

The conditions of series [1]: α-amino acids with acidic side chains.
For series [2] the following is noted: for pK2: amino group, glutamic acid vs. γ-aminobutyric; for pK5: primary amine basicity, glycine vs. metilamine.

On to `N[C@@H](CCC(=O)O)C(=O)O` [glutamic acid], for which the “pH above which there is an excess of negative charge” value in series [1] is recorded as roughly 4.2. Moreover, in series [2], the pK2 is reported as 9.76. For `N[C@@H](CCS(=O)(=O)O)C(=O)O` [homocysteic acid], the “pH above which there is an excess of negative charge” value in series [1] is on record as roughly 2.2. Regarding `NCCCC(=O)O` [γ-aminobutyric, 4-aminobutanoic acid], in series [2], the pK2 is recorded as 10.56. For `CN` [metilamine], the pK5 in series [2] is 10.65. As to `NCC(=O)O` [glycine], the pK5 in series [2] was 9.60.
